Results published in publication PMC12078333, “Pharmacokinetic evaluation and bioavailability of KPT-335 (Verdinexor) in cats” (Frontiers in Veterinary Science, 2025).
Values joined by “and” are separate entries in the source; they are usually repeats but may differ in a detail not shown here. Equal values may be shown once. Read-outs that look alike come from different tables or passages of the source.

Test: Pharmacokinetics study of KPT-335 in cats (i.v. injection, p.o. capsules and tablets; UPLC-MS/MS, non-compartmental analysis)
Format: in vivo
Settings: for Plasma concentration: individual cats 1-6; for AUC(0-t) / Cmax: plasma
Description: In this study, a parallel trial design was employed, 42 adult domestic cats (21 males and 21 females), aged 1 to 2 years and weighing 2.5 ± 0.25 kg. Cats were grouped by random number, with half male and female in each group, and all cats were determined to be systemically healthy during an initial screening visit 1 week prior to the experiment. They were acclimatized to the laboratory environment for 7 days before the study commenced. During this period, they were kept in solitary cages with free access to water. Cats in the fasting group were deprived of food for 12 h prior to and 2 h following drug administration, while those in the feeding group were fed twice a day. Food and water sources were consistent throughout the trail. During and at the end of the experiment, we systematically assessed the adverse reactions by recording parameters such as body weight, behavior, and coat gloss in all test cats both before and after the trial. These observations were conducted to evaluate whether any adverse reactions occurred. All procedures were reviewed and approved by the Institutional Animal Care and Use Committee of China Agricultural University (11305-23-E-002).
The UPLC-MS/MS system utilized a UPLC 1290 (Agilent) paired with a Phenomenex Kinetex C18 column (50 mm × 2.1 mm, 2.6 μm) for separation at a flow rate of 0.3 mL/min. The chromatographic mobile phase comprised water (A) and acetonitrile (B), both containing 0.1% formic acid. The gradient elution program was as follows: from 0.5 to 2.5 min, 10 to 95% B; from 2.5 to 4.5 min, 95% B; from 4.5 to 4.6 min, 95 to 10% B; and from 4.6 to 6.0 min, 10% B. The injection volume was 2 μL.
For mass spectrometry, an Agilent 6,475-LC-TQ equipped with an electrospray ion source was used. Multiple Reaction Monitoring (MRM) was selected to quantify KPT-335 in the positive ion mode. The ion transitions monitored were m/z 443.1 → 334.0 and 443.1 → 110.1 for KPT-335, and m/z 444.1 → 334.0 for the internal standard (IS). The cone voltage and collision energy were optimized for KPT-335 and the IS individually, set at 160 V and 25 eV, respectively. The optimized parameters for the instrument included an ion source temperature of 350°C, solvent removal temperature of 320°C, capillary voltage of 3.0 kV, and a solvent gas flow rate of 300 L/h.
The method was developed based on prior research conducted in the laboratory ([16]) and validated in accordance with international guidelines ([17]). The calibration concentration range for KPT-335 spanned from 0.5 to 100 ng/mL, with a lower limit of quantification (LLOQ) set at 0.5 ng/mL. The squared correlation coefficient (R^2) values exceeded 0.999, indicating high linearity.
For sample preparation, 100 μL of plasma was mixed with 10 μL of internal standard (IS) and 900 μL of acetonitrile, followed by vortexing for 2 min. The mixture was then centrifuged at 13,400 × g at 4°C for 10 min. The supernatant was filtered through a 0.22 μm organic membrane, and the resulting sample was analyzed using UPLC-MS/MS.
Cats were divided into seven groups, with six cats in each group. In the intravenous (i.v.) group (Group 1), cats received an injection of KPT-335 at a dosage of 1 mg/kg body weight (BW), administered via a bolus through a venous infusion needle. For the oral (p.o.) administration, cats were given capsules in a fasting state at doses of 0.2 mg/kg BW (Group 2), 1 mg/kg BW (Group 3), and 2 mg/kg BW (Group 4). Additionally, tablets were administered at 1 mg/kg BW (fasting, Group 5), 1 mg/kg BW (Group 6), and 2 mg/kg BW (Group 7) in a feeding state, followed by 3 mL of water delivered with a syringe.
For the p.o. administration, blood samples of 1.5 mL were collected via the brachial cephalic vein prior to administration and at 0.167, 0.333, 0.5, 0.75, 1, 1.5, 2, 4, 6, 8, 12, 24, 32, and 48 h post-administration. […]

[1] = cats, i.v., Injection, 1 mg/kg BW
[2] = cats, p.o., Capsule, Fasting, 0.2 mg/kg BW
[3] = cats, p.o., Capsule, Fasting, 1 mg/kg BW
[4] = cats, p.o., Capsule, Fasting, 2 mg/kg BW
[5] = cats, p.o., Tablet, Fasting, 1 mg/kg BW
[6] = cats, p.o., Tablet, Feeding, 1 mg/kg BW

Structure (SMILES): O=C(/C=C\n1cnc(-c2cc(C(F)(F)F)cc(C(F)(F)F)c2)n1)NNc1ccccn1 [KPT-335]
- Plasma concentration (cats, i.v. 1 mg/kg BW, 1 h, 1 mg/kg, in ng/mL): 643.90 and 242.31 and 664.36 and 555.75 and 518.04 and 558.85
- Plasma concentration (cats, i.v. 1 mg/kg BW, 2 h, 1 mg/kg, in ng/mL): 490.02 and 194.67 and 604.45 and 427.47 and 433.50 and 495.92
- Plasma concentration (cats, i.v. 1 mg/kg BW, 4 h, 1 mg/kg, in ng/mL): 278.69 and 140.14 and 326.77 and 250.68 and 245.55 and 286.46
- Plasma concentration (cats, i.v. 1 mg/kg BW, 8 h, 1 mg/kg, in ng/mL): 92.64 and 60.90 and 157.56 and 64.79 and 88.37 and 110.98
- Plasma concentration (cats, i.v. 1 mg/kg BW, 12 h, 1 mg/kg, in ng/mL): 91.54 and 31.99 and 27.73 and 24.10 and 36.17 and 25.48
- Plasma concentration (cats, i.v. 1 mg/kg BW, 24 h, 1 mg/kg): 0.00204 µg/mL and 0.00182 µg/mL
- Plasma concentration (cats, i.v. 1 mg/kg BW, 24 h, 1 mg/kg, in ng/mL): 11.88 and 15.46 and 18.84 and 11.18
- Plasma concentration (cats, i.v. 1 mg/kg BW, 32 h, 1 mg/kg): 2.52 and 2.36 and 9.45 and 1.34 and 8.61 and BLOQ
- Plasma concentration (cats, i.v. 1 mg/kg BW, 48 h): BLOQ
- AUC_%Extrap_obs [1]: 0.83 ± 0.69%
- HL_Lambda_z [1]: 3.93 ± 0.84 h
- reduction of absolute bioavailability when dosage is increased to 2 mg/kg BW (cats, p.o.): 15–25%
- AUC_%Extrap_obs [2]: 7.53 ± 7.79%
- HL_Lambda_z [2]: 7.04 ± 3.26 h
- AUC_%Extrap_obs [3]: 0.47 ± 0.13%
- HL_Lambda_z [3]: 5.37 ± 1.01 h
- AUC_%Extrap_obs [4]: 0.75 ± 0.38%
- HL_Lambda_z [4]: 6.78 ± 0.97 h
- AUC_%Extrap_obs [5]: 0.82 ± 0.39%
- HL_Lambda_z [5]: 5.76 ± 1.16 h
- AUC_%Extrap_obs [6]: 0.92 ± 1.43%
- HL_Lambda_z [6]: 4.20 ± 1.26 h
- AUC_%Extrap_obs (cats, p.o., Tablet, Feeding, 2 mg/kg BW): 0.39 ± 0.24%
- HL_Lambda_z (cats, p.o., Tablet, Feeding, 2 mg/kg BW, 2 mg/kg): 3.54 h and 3.54 ± 0.81 h
- impact of feeding on the AUC (cats, tablet 1 mg/kg BW fasting vs feeding): minimal to no impact
- Plasma concentration (cats, tablet p.o. 1 mg/kg BW after fasting, 48 h, 1 mg/kg): BLOQ
- Plasma concentration (cats, tablet p.o. 1 mg/kg BW after feeding, 24 h, 1 mg/kg): BLOQ
- Plasma concentration (cats, tablet p.o. 1 mg/kg BW after feeding, 32 h, 1 mg/kg): BLOQ
- Plasma concentration (cats, tablet p.o. 1 mg/kg BW after feeding, 48 h, 1 mg/kg): BLOQ
- Plasma concentration (cats, tablet p.o. 2 mg/kg BW after feeding, 32 h, 2 mg/kg): BLOQ
- Plasma concentration (cats, tablet p.o. 2 mg/kg BW after feeding, 48 h): BLOQ
- AUC(0-t) (female, iv, 1 mg/kg, female cats, i.v., Injection, 1 mg/kg BW, read-out: AUClast Value females): 3.06 ± 0.193 µg·h/mL
- Cmax (female, iv, 1 mg/kg, female cats, i.v., Injection, 1 mg/kg BW, read-out: Cmax Value females): 0.886 ± 0.054 µg/mL
- AUC(0-t) (female, po, 0.2 mg/kg, female cats, p.o., Capsule, Fasting, 0.2 mg/kg BW, read-out: AUClast Value females): 0.244 ± 0.0234 µg·h/mL
- Cmax (female, po, 0.2 mg/kg, female cats, p.o., Capsule, Fasting, 0.2 mg/kg BW, read-out: Cmax Value females): 0.0311 ± 0.0112 µg/mL
- AUC(0-t) (female, po, 1 mg/kg, female cats, p.o., Capsule, Fasting, 1 mg/kg BW, read-out: AUClast Value females): 1.49 ± 0.292 µg·h/mL
- Cmax (female, po, 1 mg/kg, female cats, p.o., Capsule, Fasting, 1 mg/kg BW, read-out: Cmax Value females): 0.284 ± 0.0958 µg/mL
- AUC(0-t) (female, po, 1 mg/kg, female cats, p.o., Tablet, Fasting, 1 mg/kg BW, read-out: AUClast Value females): 2.48 ± 1.16 µg·h/mL
- Cmax (female, po, 1 mg/kg, female cats, p.o., Tablet, Fasting, 1 mg/kg BW, read-out: Cmax Value females): 0.22 ± 0.0484 µg/mL
- AUC(0-t) (female, po, 1 mg/kg, female cats, p.o., Tablet, Feeding, 1 mg/kg BW, read-out: AUClast Value females): 2.66 ± 1.87 µg·h/mL
- Cmax (female, po, 1 mg/kg, female cats, p.o., Tablet, Feeding, 1 mg/kg BW, read-out: Cmax Value females): 0.467 ± 0.139 µg/mL
- AUC(0-t) (female, po, 2 mg/kg, female cats, p.o., Capsule, Fasting, 2 mg/kg BW, read-out: AUClast Value females): 1.83 ± 0.0396 µg·h/mL
- Cmax (female, po, 2 mg/kg, female cats, p.o., Capsule, Fasting, 2 mg/kg BW, read-out: Cmax Value females): 0.233 ± 0.0524 µg/mL
- AUC(0-t) (female, po, 2 mg/kg, female cats, p.o., Tablet, Feeding, 2 mg/kg BW, read-out: AUClast Value females): 2.84 ± 1.09 µg·h/mL
- Cmax (female, po, 2 mg/kg, female cats, p.o., Tablet, Feeding, 2 mg/kg BW, read-out: Cmax Value females): 0.538 ± 0.15 µg/mL
- AUC(0-t) (male, iv, 1 mg/kg, male cats, i.v., Injection, 1 mg/kg BW, read-out: AUClast Value males): 3.29 ± 1.3 µg·h/mL
- Cmax (male, iv, 1 mg/kg, male cats, i.v., Injection, 1 mg/kg BW, read-out: Cmax Value males): 0.816 ± 0.443 µg/mL
- AUC(0-t) (male, po, 0.2 mg/kg, male cats, p.o., Capsule, Fasting, 0.2 mg/kg BW, read-out: AUClast Value males): 0.312 ± 0.241 µg·h/mL
- Cmax (male, po, 0.2 mg/kg, male cats, p.o., Capsule, Fasting, 0.2 mg/kg BW, read-out: Cmax Value males): 0.0241 ± 0.0063 µg/mL
- AUC(0-t) (male, po, 1 mg/kg, male cats, p.o., Capsule, Fasting, 1 mg/kg BW, read-out: AUClast Value males): 1.34 ± 0.704 µg·h/mL
- Cmax (male, po, 1 mg/kg, male cats, p.o., Capsule, Fasting, 1 mg/kg BW, read-out: Cmax Value males): 0.237 ± 0.0567 µg/mL
- AUC(0-t) (male, po, 1 mg/kg, male cats, p.o., Tablet, Fasting, 1 mg/kg BW, read-out: AUClast Value males): 2.34 ± 0.453 µg·h/mL
- Cmax (male, po, 1 mg/kg, male cats, p.o., Tablet, Fasting, 1 mg/kg BW, read-out: Cmax Value males): 0.307 ± 0.183 µg/mL
- AUC(0-t) (male, po, 1 mg/kg, male cats, p.o., Tablet, Feeding, 1 mg/kg BW, read-out: AUClast Value males): 1.85 ± 0.0111 µg·h/mL
- Cmax (male, po, 1 mg/kg, male cats, p.o., Tablet, Feeding, 1 mg/kg BW, read-out: Cmax Value males): 0.261 ± 0.0383 µg/mL
- AUC(0-t) (male, po, 2 mg/kg, male cats, p.o., Capsule, Fasting, 2 mg/kg BW, read-out: AUClast Value males): 1.85 ± 1.29 µg·h/mL
- Cmax (male, po, 2 mg/kg, male cats, p.o., Capsule, Fasting, 2 mg/kg BW, read-out: Cmax Value males): 0.328 ± 0.259 µg/mL
- AUC(0-t) (male, po, 2 mg/kg, male cats, p.o., Tablet, Feeding, 2 mg/kg BW, read-out: AUClast Value males): 3.16 ± 0.107 µg·h/mL
- Cmax (male, po, 2 mg/kg, male cats, p.o., Tablet, Feeding, 2 mg/kg BW, read-out: Cmax Value males): 0.58 ± 0.056 µg/mL
